Source: US20230390224A1, “UNITARY ORAL DOSAGE FORM IN BASE OF SPHERICAL AND/OR SPHEROIDAL SHAPED PARTICLES” (ATOMIC PHARMACEUTICS INC., priority 2022, published 2023)
Structures can show the parent of a compound that is named as a salt.

Legend:
[1] = cited from earlier work
[2] = cited from earlier work; remark: listed apart in the source
[3] = Release of API from gel particles into liquid medium B (spectrophotometry; Weibull Fmax, Higuchi release rate); format: physicochemical; conditions: liquid medium B and liquid medium C
Description: To the measurements of APIs release, the APIs concentrations were determined spectrophotometrically, by sampling in a Thermo Spectronic Genesys 10 UV equipment. Each of the measurements were performed in duplicate or more trials. The wavelengths occupied will depend on each API tested (for example, 243 nm for acetaminophen, 230 nm for naproxen).
To evaluate each of the experiments carried out and adjust the concentration points during the release experiments, various methods were used: zero order models, first order, Higuchi, Hixson-Crowell, square root of the mass, root 3/2 of the mass, Weibull and Korsmeyer-Peppas. The model that best fits the concentration points during the release experiments was a Weibull model (Vasiliki Papadopoulou, Kosmas Kosmidis, Marilena Vlachou, Panos Macheras, “On the use of the Weibull function for the discernment of drug release mechanisms,” International Journal of Pharmaceutics 309 (2006) 44-50).
An example of the surprising effects of modification of these formulation design factors is shown below for the same API (acetaminophen or paracetamol), as an example of the different effects that can be achieved using the same amount of API in all formulations (120 mg of total acetaminophen in each example). […]

SMILES | log P [1] | solubility in oily media / oil phase [2] | solubility in water [2] | release of API into the aqueous medium [3]
CC(=O)Nc1ccc(O)cc1 [Acetaminophen, acetaminophen] | 4.6 | poorly soluble | poorly soluble | 
CC(=O)Oc1ccccc1C(=O)O [Acetyl salicylic acid, acetyl salicylic acid] |  | slightly soluble | soluble | 
C=C(C)[C@@H]1CCC(C)=C[C@H]1c1c(O)cc(CCCCC)cc1O [CBD, cannabinoidiol] | 7.75 | highly soluble | very slightly soluble | 
CN(C)CCC(c1ccc(Cl)cc1)c1ccccn1 (stereo not shown) [Chlorphenamine maleate, chlorphenamine maleate] | 3.7 |  |  | 
Cc1cccc(Nc2ccccc2C(=O)O)c1C [Mefenamic acid, mefenamic acid] | 4.2 | not soluble | very poorly soluble | no release
